Experimental data: patent publication US7671085B2, “Non-steroidal farnesoid X receptor modulators and methods for the use thereof” (The Salk Institute for Biological Studies, priority 2002, dated 2010)

Biological target: T1, FXR (Homo sapiens, UniProt Q96RI1)
T1 construct: using a full length FXR on a natural response element; expressed in transfected cells
T1 sequence (Q96RI1 1-486): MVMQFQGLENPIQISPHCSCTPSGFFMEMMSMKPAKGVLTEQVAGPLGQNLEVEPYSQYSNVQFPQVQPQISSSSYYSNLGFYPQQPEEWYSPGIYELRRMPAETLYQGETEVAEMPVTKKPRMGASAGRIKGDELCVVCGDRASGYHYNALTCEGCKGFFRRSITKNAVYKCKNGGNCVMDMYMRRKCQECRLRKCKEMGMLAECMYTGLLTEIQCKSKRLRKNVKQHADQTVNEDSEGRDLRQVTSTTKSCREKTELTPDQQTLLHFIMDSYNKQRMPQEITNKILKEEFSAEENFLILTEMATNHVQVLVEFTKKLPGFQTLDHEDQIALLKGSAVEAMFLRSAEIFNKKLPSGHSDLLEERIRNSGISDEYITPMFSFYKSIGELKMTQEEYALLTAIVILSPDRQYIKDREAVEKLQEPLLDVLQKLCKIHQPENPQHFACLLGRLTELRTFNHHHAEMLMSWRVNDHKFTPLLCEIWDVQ
Test: cell-based FXR transcription assay, FXR responsive promoter linked to luciferase reporter
Details: for EC50 / RE^a: cell-based FXR reporter assay; for EC50: determined with Prism 3.0; for RE^a: footnote a not given; for FXR activation, in words: cell-based reporter assay, SAR discussion
Excerpt: In addition to ensuring that only cell permeable compounds were selected for further optimization, this approach allows for the detection of FXR activation in a natural system (i.e., correct folding of the protein and in the presence of a complete compliment of co-activators and co-repressors).
The feasibility of creating high throughput screens (HTS) for ORs was explored using FXR as a candidate orphan receptor (OR) with a known activator, chenodeoxycholic acid (CDCA) as a ligand. The screen is based on the co-transfection of a full-length receptor with the reporter vector containing a natural hormone response element under a minimal eukaryotic promoter. […] Using this 384-well format, the high throughput screening (HTS) approach to FXR as a candidate OR was employed. […] A central question in the feasibility studies is whether this library is suitable for screening for nuclear receptor ligands. Samples of this library were first reformatted into a 384-well format and then subjected to the FXR cell-based assays described above and assessed for FXR-mediated transcriptional activity. Cells were exposed to approximately 10 μM of sample for 18 hrs prior to washing and luciferase analysis.
EC50 values were determined with Prism 3.0 software via the activity of the subject compound in the previously described cell based assay.

| Structure (SMILES) | EC50 [nM] | RE^a | FXR activation, in words |
| --- | --- | --- | --- |
| COC(=O)/C=C/c1cccc(N(Cc2ccc(/C=C/c3ccc(F)cc3)cc2)C(=O)C(C)C)c1 [Compound 205] | 120 | 1.19 | excellent activity |
| COC(=O)/C=C/c1cccc(N(Cc2ccc(/C=C/c3ccc(F)cc3)cc2)C(=O)NC(C)C)c1 [Compound 206] | – | 0.91 | – |
| COC(=O)C=Cc1cccc(N(Cc2ccc(C=Cc3ccccn3)cc2)C(=O)C2CCCCC2)c1 [Compound 207] | – | 0.81 | – |
| COC(=O)C=Cc1cccc(N(Cc2ccc(C=Cc3ccccn3)cc2)C(=O)C(C)C)c1 [Compound 208] | – | 0.62 | – |
| COC(=O)C=Cc1cccc(N(Cc2ccc(C=Cc3ccccn3)cc2)C(=O)NC(C)C)c1 [Compound 209] | – | 0.68 | – |
| COC(=O)C=Cc1cccc(N(Cc2ccc(C=Cc3scnc3C)cc2)C(=O)C2CCCCC2)c1 [Compound 210] | – | 0.53 | – |
| COC(=O)C=Cc1cccc(N(Cc2ccc(C=Cc3scnc3C)cc2)C(=O)C(C)C)c1 [Compound 211] | – | 0.32 | – |
| COC(=O)C=Cc1cccc(N(Cc2ccc(C=Cc3scnc3C)cc2)C(=O)NC(C)C)c1 [Compound 212] | – | 0.42 | – |
| COC(=O)/C=C/c1cccc(N(Cc2ccc(-c3ccc(F)c(F)c3)cc2)C(=O)C2CCCCC2)c1 [Compound 213] | – | 1.70 | excellent activity |
| COC(=O)/C=C/c1cccc(N(Cc2ccc(-c3ccc(F)c(F)c3)cc2)C(=O)C(C)C)c1 [Compound 214] | – | 1.15 | – |
| COC(=O)/C=C/c1cccc(N(Cc2ccc(-c3ccc(F)c(F)c3)cc2)C(=O)NC(C)C)c1 [Compound 215] | – | 0.23 | – |
| COC(=O)/C=C/c1cccc(N(Cc2ccc(-c3ccc(SC)cc3)cc2)C(=O)C(C)C)c1 [Compound 216] | – | 0.98 | excellent activity |
| COC(=O)/C=C/c1cccc(N(Cc2ccc(-c3ccc(SC)cc3)cc2)C(=O)NC(C)C)c1 [Compound 217] | – | 0.23 | – |
| COC(=O)/C=C/c1cccc(N(Cc2ccc(-c3ccccc3OC)cc2)C(=O)C2CCCCC2)c1 [Compound 218] | 359 | 0.49 | – |
| COC(=O)/C=C/c1cccc(N(Cc2ccc(-c3ccccc3OC)cc2)C(=O)C(C)C)c1 [Compound 219] | – | 0.28 | – |
| COC(=O)/C=C/c1cccc(N(Cc2ccc(-c3ccccc3OC)cc2)C(=O)NC(C)C)c1 [Compound 220] | – | 0.09 | – |
| COC(=O)/C=C/c1cccc(N(Cc2ccc(-c3cc(Cl)cc(Cl)c3)cc2)C(=O)C(C)C)c1 [Compound 221] | 661 | 0.54 | – |
| COC(=O)/C=C/c1cccc(N(Cc2ccc(-c3cc(Cl)cc(Cl)c3)cc2)C(=O)NC(C)C)c1 [Compound 222] | < 10000 | 0.10 | – |
| COC(=O)/C=C/c1cccc(N(Cc2ccc(-c3cccc(OC)c3)cc2)C(=O)C2CCCCC2)c1 [Compound 223] | – | 1.51 | – |
| COC(=O)/C=C/c1cccc(N(Cc2ccc(-c3cccc(OC)c3)cc2)C(=O)C(C)C)c1 [Compound 224] | – | 1.28 | excellent activity |
| COC(=O)/C=C/c1cccc(N(Cc2ccc(-c3cccc(OC)c3)cc2)C(=O)NC(C)C)c1 [Compound 225] | – | 0.41 | – |
| CCOc1cccc(-c2ccc(CN(C(=O)C3CCCCC3)c3cccc(/C=C/C(=O)OC)c3)cc2)c1 [Compound 226] | – | 1.37 | – |
| CCOc1cccc(-c2ccc(CN(C(=O)C(C)C)c3cccc(/C=C/C(=O)OC)c3)cc2)c1 [Compound 227] | – | 1.03 | – |
| CCOc1cccc(-c2ccc(CN(C(=O)NC(C)C)c3cccc(/C=C/C(=O)OC)c3)cc2)c1 [Compound 228] | – | 0.33 | – |
| COC(=O)/C=C/c1cccc(N(Cc2ccc(-c3ccc(OC)cc3)cc2)C(=O)C2CCCCC2)c1 [Compound 229] | – | 1.71 | excellent activity |
| COC(=O)/C=C/c1cccc(N(Cc2ccc(-c3ccc(OC)cc3)cc2)C(=O)C(C)C)c1 [Compound 230] | – | 1.21 | excellent activity |
| COC(=O)/C=C/c1cccc(N(Cc2ccc(-c3ccc(OC)cc3)cc2)C(=O)NC(C)C)c1 [Compound 231] | – | 1.18 | – |

| Structure (SMILES) | EC50 [nM] | RE^a | FXR activation, in words |
| --- | --- | --- | --- |
| COC(=O)/C=C/c1cccc(N(Cc2ccc(-c3cccc(Cl)c3)cc2)C(=O)C2CCCCC2)c1 [Compound 232] | – | 1.56 | excellent activity |
| COC(=O)/C=C/c1cccc(N(Cc2ccc(-c3cccc(Cl)c3)cc2)C(=O)C(C)C)c1 [Compound 233] | 77 | 1.52 | excellent activity |
| COC(=O)/C=C/c1cccc(N(Cc2ccc(-c3cccc(Cl)c3)cc2)C(=O)NC(C)C)c1 [Compound 234] | – | 0.49 | – |
| COC(=O)/C=C/c1cccc(N(Cc2ccc(-c3ccc(C)cc3)cc2)C(=O)C2CCCCC2)c1 [Compound 235] | – | 1.38 | excellent activity |
| COC(=O)/C=C/c1cccc(N(Cc2ccc(-c3ccc(C)cc3)cc2)C(=O)C(C)C)c1 [Compound 236] | – | 1.48 | excellent activity |
| COC(=O)/C=C/c1cccc(N(Cc2ccc(-c3ccc(C)cc3)cc2)C(=O)NC(C)C)c1 [Compound 237] | – | 0.80 | – |
| COC(=O)/C=C/c1cccc(N(Cc2ccc(-c3cccc(C)c3)cc2)C(=O)C2CCCCC2)c1 [Compound 238] | – | 1.43 | excellent activity |
| COC(=O)/C=C/c1cccc(N(Cc2ccc(-c3cccc(C)c3)cc2)C(=O)C(C)C)c1 [Compound 239] | – | 1.09 | – |
| COC(=O)/C=C/c1cccc(N(Cc2ccc(-c3cccc(C)c3)cc2)C(=O)NC(C)C)c1 [Compound 240] | – | 0.53 | – |
| COC(=O)/C=C/c1cccc(N(Cc2ccc(-c3cc(Cl)ccc3OC)cc2)C(=O)C2CCCCC2)c1 [Compound 241] | – | 1.16 | – |
| COC(=O)/C=C/c1cccc(N(Cc2ccc(-c3cc(Cl)ccc3OC)cc2)C(=O)C(C)C)c1 [Compound 242] | – | 0.79 | – |
| COC(=O)/C=C/c1cccc(N(Cc2ccc(-c3cc(Cl)ccc3OC)cc2)C(=O)NC(C)C)c1 [Compound 243] | – | 0.17 | – |
| COC(=O)/C=C/c1cccc(N(Cc2ccc(-c3ccc4c(c3)OCO4)cc2)C(=O)C(C)C)c1 [Compound 245] | – | 1.25 | excellent activity |
| COC(=O)/C=C/c1cccc(N(Cc2ccc(-c3ccc4c(c3)OCO4)cc2)C(=O)NC(C)C)c1 [Compound 246] | – | 1.51 | excellent activity |
| COC(=O)/C=C/c1cccc(N(Cc2ccc(-c3ccc(F)c(Cl)c3)cc2)C(=O)C2CCCCC2)c1 [Compound 247] | – | 1.87 | excellent activity |
| COC(=O)/C=C/c1cccc(N(Cc2ccc(-c3ccc(F)c(Cl)c3)cc2)C(=O)C(C)C)c1 [Compound 248] | – | 1.64 | – |
| COC(=O)/C=C/c1cccc(N(Cc2ccc(-c3ccc(F)c(Cl)c3)cc2)C(=O)NC(C)C)c1 [Compound 249] | – | 0.41 | – |
| COC(=O)/C=C/c1cccc(N(Cc2ccc(-c3ccc(OC(F)(F)F)cc3)cc2)C(=O)C2CCCCC2)c1 [Compound 250] | – | 1.04 | – |
| COC(=O)/C=C/c1cccc(N(Cc2ccc(-c3ccc(OC(F)(F)F)cc3)cc2)C(=O)C(C)C)c1 [Compound 251] | – | 0.78 | – |
| COC(=O)/C=C/c1cccc(N(Cc2ccc(-c3ccc(OC(F)(F)F)cc3)cc2)C(=O)NC(C)C)c1 [Compound 252] | – | 0.21 | – |
| COC(=O)/C=C/c1cccc(N(Cc2ccc(-c3cccc(OC(F)(F)F)c3)cc2)C(=O)C2CCCCC2)c1 [Compound 253] | – | 0.84 | – |
| COC(=O)/C=C/c1cccc(N(Cc2ccc(-c3cccc(OC(F)(F)F)c3)cc2)C(=O)C(C)C)c1 [Compound 254] | – | 0.69 | – |
| COC(=O)/C=C/c1cccc(N(Cc2ccc(-c3cccc(OC(F)(F)F)c3)cc2)C(=O)NC(C)C)c1 [Compound 255] | – | 0.09 | – |
| COC(=O)/C=C/c1cccc(N(Cc2ccc(-c3c(OC)cccc3OC)cc2)C(=O)C2CCCCC2)c1 [Compound 256] | – | 0.12 | excellent activity |
| COC(=O)/C=C/c1cccc(N(Cc2ccc(-c3c(OC)cccc3OC)cc2)C(=O)C(C)C)c1 [Compound 257] | – | 0.10 | excellent activity |
| COC(=O)/C=C/c1cccc(N(Cc2ccc(-c3c(OC)cccc3OC)cc2)C(=O)NC(C)C)c1 [Compound 258] | – | 0.10 | – |
| COC(=O)/C=C/c1cccc(N(Cc2ccc(-c3ccc(N(C)C)cc3)cc2)C(=O)C(C)C)c1 [Compound 260] | – | 1.07 | excellent activity |
